Square brackets hold non-standard residues; d marks the D form. * marks the point of attachment. 2Nal = N[C@@H](Cc1ccc2ccccc2c1)C(=O)O; Propionyl = CCC(=O)*; Sar = CNCC(=O)O
Legend:
[1] = tested on: CD21F1 male mice exposed to TBI; assay: Dose reduction factor (DRF) and long-term survival study after TBI; assay type: in vivo, mouse
Source text: Methods: CD21F1 male mice were used in a DRF (dose reduction factor) study to determine LD50/30 for animals administered with RWJ-800088 or it's vehicle (saline). This included irradiating cohorts of 24 animals at various total body irradiation (TBI) doses (Saline: 7.5, 8.0, 8.5, 9.0, 9.5, and 10 Gy; RWJ-800088: 10.5, 11.0, 11.5, 11.75, 12, and 12.5 Gy). Following the 30 day survival study, surviving animals were monitored for up to 1 year with planned collection points at 6 months and 1 year.
RWJ-800088 administration timing and doses: RWJ-800088 was administered […] at a dose of 1 mg/kg 24 h prior to irradiation.

[2] = tested on: CD2F1 mice exposed to TBI (7 Gy); assay: Circulating biomarkers (EPO, FLT3 ligand, MMP9, VCAM1, E-Selectin, sP-Selectin) after 7 Gy TBI; assay type: in vivo, mouse
Experimental: Harvesting blood and tissues for various molecular assays: RWJ-800088 (0.3 mg/kg) or saline (n=6 per group) was administered SC 24 hour prior to irradiation. The experimental animals received either 0 or 7 Gy radiation (non-lethal dose) in the AFRRI Co-60 gamma radiation facility. […] The femurs and sterna were then collected and processed as described below.

[3] = tested on: rhesus monkeys after TBI gamma radiation (600 cGY); assay: Rhesus monkey whole body irradiation pilot PK/PD study; assay type: in vivo
Experimental: A pilot PK/PD study was performed to evaluate the efficacy of RWJ-800088 in rhesus monkeys (Study No. 2016-2693—CiToxLAB North America). Rhesus monkeys (n=10/group, 5 male/5 female) were treated with vehicle or RWJ-800088 (a single dose of 30 mg/kg RWJ-800088) administered 24 hours post TBI gamma radiation (600 cGY). […] The ratio of the maximum platelet count to baseline following escalating doses of RWJ-800088 to healthy rhesus monkeys is as follows: 0.97±0.06× at 0.5 mg/kg, 1.08±0.15× at 2 mg/kg, 1.98±0.16× at 10 mg/kg, 2.9±0.03× at 20 mg/kg, and 3.83±0.11× at 40 mg/kg).

Mouse = assay: Maximum platelet elevation relative to baseline in normal healthy mice, single escalating doses; assay type: in vivo; design: key to pharmacodynamics (PD) effect class of the dose (beneficial effects on survival): **: large pharmacodynamics (PD) effect; *: modest effect; settings: for Mouse Max Platelet Ratio: 3DP03-Piedmont-01
Source text: The ratio of the maximum platelet counts to the baseline platelet counts following single escalating doses of RWJ-800088 to mice, rats, dogs, rhesus monkeys and human healthy volunteers is shown in Table 5. The dose required to achieve a 2-3.5-fold elevation in humans is ˜100-fold lower compared to mice, ˜1,000-fold lower compared to rats and >10,000-fold lower compared to canines and NHPs. […] The species differences in potency has been described for other TPO mimetics in the literature and is attributed to differences in receptor affinity (Erickson-Miller C L, et al. Discovery and characterization of a selective, nonpeptidyl thrombopoietin receptor agonist. Exp. Hematol. 2005; 33:85-93). […] It is discovered that the dose of RWJ-800088 that produces a survival benefit and protects against vascular and organ injury is the dose that produces a 2-4 fold elevation of platelets (Table 6).

[4] = tested on: male BALB/c mice treated with carboplatin; assay: Carboplatin induced thrombocytopenia, anemia, mortality and brain microangiopathic events in mice; assay type: in vivo, mouse
Experimental: Materials and Methods: Increasing doses of carboplatin (i.e., 60, 70, or 80 mg/kg, i.p.) were administered on 2 consecutive days (Day 1 and Day 0) to male BALB/c mice (N=3 per group). Approximately 1 hour after carboplatin treatment on Day 0, sets of mice were treated with vehicle or RWJ-800088 (100 μg/kg, i.v.).
On Day 15, surviving mice were euthanized and blood samples were collected for the assessment of platelet and red blood cell (RBC) parameters. The brains of the mice were also isolated and preserved in 10% buffered formalin for immunohistochemical staining using anti-fibrinogen antibodies. Control mice were processed in a similar manner.

[5] = Group 7, 10.5 Gy, 1 mg/kg 24 h prior to irradiation
[6] = Group 9, 11.5 Gy, 1 mg/kg 24 h prior to irradiation
[7] = Group 12, 12.5 Gy, 1 mg/kg 24 h prior to irradiation
[8] = carboplatin 70 mg/kg, RWJ-800088 100 μg/kg i.v., Day 15

Q: With “methoxypolyethyleneglycol20000-propionyl-L-Isoleucyl-L-Glutamyl-Glycyl-L-Prolyl-L-Threonyl-L-Leucyl-L-Arginyl-L-Glutaminyl-L-2-Naphthylalanyl-L-Leucyl-L-Alanyl-L-Alanyl-L-Arginyl-Sarcosyl-Ne-(methoxypolyethyleneglycol20000-propionyl-L-Isoleucyl-L-Glutamyl-Glycyl-L-Prolyl-L-Threonyl-L-Leucyl-L-Arginyl-L-Glutaminyl-L-2-Naphthylalanyl-L-Leucyl-L-Alanyl-L-Alanyl-L-Arginyl-Sarcosyl-)-Lysinamide ({mPEG 20 kDa-Propionyl}-IEGPTLRQ[2Nal]LAAR[Sar]K-NH2; also: dimer: second identical mPEG-propionyl chain on Lys Nε of C-terminal lysinamide) [RWJ-800088]” as the substance, how does the DRF value ([1]; 1 mg/kg 24 h prior to irradiation, 95% CI 1.16-2.54) read?
A: 1.42

Q: What about the “LD50 value (radiation dose) for RWJ-800088 treated animals” value ([1]; 1 mg/kg 24 h prior to irradiation, LD50/30) of the same substance?
A: 12.64 Gy

Q: And the “# Surviving (6 months)” value [1, 5]?
A: 10/10

Q: What about the “# Surviving (12 months)” value [1, 5] of the same substance?
A: 5/5

Q: And the “# Surviving (30 days)” value [1, 5]?
A: 24/24

Q: And the “# Surviving (6 months)” value [1, 6]?
A: 10/10

Q: What about the “# Surviving (12 months)” value [1, 6] of the same substance?
A: 5/5

Q: What about the “# Surviving (30 days)” value [1, 6] of the same substance?
A: 22/24

Q: And the “# Surviving (12 months)” value [1, 7]?
A: 0/3

Q: What about the “# Surviving (30 days)” value [1, 7] of the same substance?
A: 11/24

Q: And the “# Surviving (6 months)” value ([1]; Group 12, 12.5 Gy, two animals were added from 12 Gy)?
A: 7/10

Q: And the “circulating levels of erythropoietin (EPO) vs vehicle treated irradiated mice” value ([2]; 7 Gy, 0.3 mg/kg 24 h pre-TBI (FIG. 5A))?
A: significantly (p<0.0001) lower

Q: And the “circulating levels of FLT3 ligand vs vehicle treated irradiated mice” value ([2]; 7 Gy, 0.3 mg/kg 24 h pre-TBI (FIG. 5B))?
A: significantly (p<0.0001) lower

Q: What about the “circulating levels of sP-Selectin vs vehicle” value ([2]; days 2, 3, 7, and 15 post-irradiation) of the same substance?
A: statistically significant increases (p<0.0001)

Q: What about the “circulating levels of E-Selectin vs vehicle” value ([2]; days 3, 7 15 and 30 post-irradiation) of the same substance?
A: statistically significant increases (p<0.0001)

Q: And the “circulating levels of MMP-9 vs vehicle” value ([2]; days 7 and 15 post-irradiation)?
A: statistically significant increases (p<0.0001)

Q: What about the “circulating levels of VCAM-1 vs vehicle” value ([2]; days 15 and 30 post-irradiation) of the same substance?
A: statistically significant increases (p<0.0001)

Q: And the Effects ([3]; Rhesus, whole body irradiation, 30 mg/kg, whole wrapped cell: Enhanced survival, mitigation of thrombocytopenia, anemia)?
A: Enhanced survival,

Q: What about the “decrease in RBC, reticulocytes and WBC vs irradiated vehicle” value ([3]; irradiated animals, 30 mg/kg 24 hours post-TBI (FIG. 18B-D)) of the same substance?
A: less severe decrease

Q: What about the “platelet counts, nadir and recovery” value ([3]; sham or irradiated animals, 30 mg/kg 24 hours post-TBI (FIG. 18A)) of the same substance?
A: beneficial effects on platelet counts

Q: What about the “survival (animals surviving)” value ([3]; single dose 30 mg/kg 24 hours post TBI 600 cGY, n=10/group (FIG. 17)) of the same substance?
A: 9/10

Q: And the “Mouse Max Platelet Ratio” value (Mouse; dose 10 μg/kg)?
A: 0.9 ± 0.6

Q: What about the “Mouse Max Platelet Ratio” value (Mouse; dose 30 μg/kg) of the same substance?
A: 1.8 ± 0.4

Q: What about the “Mouse Max Platelet Ratio” value (Mouse; dose 100 μg/kg) of the same substance?
A: 2.5 ± 1.1

Q: What about the “Mouse Max Platelet Ratio” value (Mouse; dose 300 μg/kg) of the same substance?
A: 3.9 ± 0.9

Q: And the “Mouse Max Platelet Ratio” value (Mouse; dose 1000 μg/kg)?
A: 4.3 ± 0.5

Q: And the “Mouse Max Platelet Ratio” value (Mouse; dose 3000 μg/kg)?
A: 3.4 ± 1

Q: What about the “Dose for 2.0-4x Platelet Elevation in Healthy Subjects” value (Mouse; Mice) of the same substance?
A: ≥0.1 mg/kg

Q: And the “pharmacodynamics (PD) effect class of the dose (beneficial effects on survival)” value (from here on “pharmacodynamics (PD) effect class”) (Mouse; Mouse, dose 100 μg/kg)?
A: **

Q: And the “Average of the Maximum Platelet Elevation/Baseline Platelet Counts” value (Mouse; Mouse, dose 300 μg/kg)?
A: 3.9

Q: And the “pharmacodynamics (PD) effect class” value (Mouse; Mouse, dose 300 μg/kg)?
A: **

Q: And the “pharmacodynamics (PD) effect class” value (Mouse; Mouse, dose 1000 μg/kg)?
A: **

Q: And the “pharmacodynamics (PD) effect class” value (Mouse; Mouse, dose 3000 μg/kg)?
A: **

Q: And the “Platelet Elevation in Non-Irradiated Animals (fold increase over baseline)” value (Mouse; TPOm dose 0.1 mg/kg)?
A: 2.50 fold increase over baseline

Q: What about the “Platelet Elevation in Non-Irradiated Animals (fold increase over baseline)” value (Mouse; TPOm dose 0.3 mg/kg) of the same substance?
A: 3.90 fold increase over baseline

Q: What about the “Platelet Elevation in Non-Irradiated Animals (fold increase over baseline)” value (Mouse; TPOm dose 1 mg/kg) of the same substance?
A: 4.30 fold increase over baseline

Q: And the “Platelet Elevation in Non-Irradiated Animals (fold increase over baseline)” value (Mouse; TPOm dose 2 mg/kg, imputed as mean of the 1 mg/kg and 3 mg/kg cohorts)?
A: 3.85 fold increase over baseline

Q: What about the “Platelet Elevation in Non-Irradiated Animals (fold increase over baseline)” value (Mouse; TPOm dose 3 mg/kg) of the same substance?
A: 3.40 fold increase over baseline

Q: And the Effects ([4]; Mice, carboplatin chemotherapy, whole wrapped cell: Protection against thrombocytopenia, anemia and vascular hemorrhage in the brain)?
A: Protection against

Q: What about the “fibrinogen staining of brain sections (immunohistochemistry)” value [4, 8] of the same substance?
A: appeared normal with the intensity of fibrinogen staining similar to vessels in the brains of control mice

Q: And the “signs of hemorrhage or edema in brain” value [4, 8]?
A: none of the brains isolated from mice co-treated with RWJ-800088 exhibited signs of hemorrhage or edema

Q: And the “platelet and RBC counts on Day 15” value ([4]; carboplatin 60, 70 or 80 mg/kg i.p. on 2 consecutive days, RWJ-800088 100 μg/kg i.v. ~1 hour after carboplatin on Day 0)?
A: prevented the observed decreases in platelet and RBC counts

Q: What about the mortality / euthanization ([4]; carboplatin 60-80 mg/kg i.p. x2 days, RWJ-800088 100 μg/kg i.v.) of the same substance?
A: none of the mice treated with RWJ-800088 died or required euthanization

Source: patent US20220168392A1 (priority 2019, published 2022)
